Measured values published in patent US7342032B2 (dated 2008).

Work on O=C(NN1CCCCC1)c1nc(-c2ccc(Cl)cc2Cl)c(-c2ccc(Br)cc2)s1 yielded a melting point of 171 to 173 °C.
Compound O=C(NN1CCCCCC1)c1nc(-c2ccc(Cl)cc2Cl)c(-c2ccc(Cl)cc2)s1 has a melting point of 185 to 186 °C.
With O=C(Nc1ccccc1)c1nc(-c2ccc(Cl)cc2Cl)c(-c2ccc(Cl)cc2)s1 the melting point was 167 to 168 °C.
O=C(NCCCC(F)(F)F)c1nc(-c2ccc(Cl)cc2Cl)c(-c2ccc(Cl)cc2)s1 showed a melting point of 99 to 101 °C.
